{"source": "paper PMC11124507", "about": "“Synthesis and Evaluation of Novel ^68Ga-Labeled [D-Phe^6,Leu^13ψThz^14]bombesin(6-14) Analogs for Cancer Imaging with Positron Emission Tomography” (Pharmaceuticals, 2024)", "key": {"GRPR": {"target": "T1, GRPR (Homo sapiens, UniProt P30550)", "T1 construct": "Known to overexpress GRPR, the PC-3 cell line, a human prostate cancer cell line; host or cells: PC-3 human prostate cancer cells", "T1 sequence (P30550 whole entry)": "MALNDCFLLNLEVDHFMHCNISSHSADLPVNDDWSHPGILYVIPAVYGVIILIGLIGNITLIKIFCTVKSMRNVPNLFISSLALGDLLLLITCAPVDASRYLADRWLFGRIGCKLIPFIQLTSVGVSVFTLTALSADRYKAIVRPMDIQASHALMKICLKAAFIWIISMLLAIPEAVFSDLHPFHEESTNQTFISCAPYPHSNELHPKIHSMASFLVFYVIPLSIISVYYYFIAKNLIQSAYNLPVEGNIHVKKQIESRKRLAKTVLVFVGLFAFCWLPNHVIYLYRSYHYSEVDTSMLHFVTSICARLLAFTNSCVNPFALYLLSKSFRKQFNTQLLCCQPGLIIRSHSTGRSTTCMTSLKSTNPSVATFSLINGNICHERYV", "experiment": "Fluorometric intracellular calcium release assay in PC-3 cells", "format": "cell-based", "details": "50 nM, n = 3", "protocol": "Following previously published procedures, 5 × 10^4 PC-3 cells in 100 μL of growth media were seeded per well in a 96-well clear-bottom black plate 24 h prior to the assay. A loading buffer (100 μL/well) containing a calcium-sensitive dye (FLIPR Calcium 6 assay kit) was added to the 96-well plate. After incubation at 37 °C for 2 h, the plate was placed in a FlexStation 3 microplate reader (Molecular Devices, San Jose, CA, USA). TacsBOMB2 derivatives (50 nM), [D-Phe^6,Leu-NHEt^13,des-Met^14]Bombesin(6-14) (50 nM, antagonist control), bombesin (50 nM, agonist control), adenosine triphosphate (ATP, 50 nM, positive control), or DPBS (blank control) was added, and the fluorescent signals were acquired for 2 min (λEx = 485 nm; λEm = 525 nm; n = 3). The relative fluorescent units (RFUs = max − min) were measured to determine the agonistic/antagonistic properties."}, "PC-3 tumor xenografts": {"system": "PC-3 tumor xenografts", "details": "mouse, in vivo, 1 h; cited from earlier work"}}}
{"molecule": "Nc1ncnc2c1ncn2[C@@H]1O[C@H](COP(=O)(O)OP(=O)(O)OP(=O)(O)O)[C@@H](O)[C@H]1O", "note": "[ATP, adenosine triphosphate]", "values": [{"measurement": "Ca2+ efflux", "setting": "GRPR", "value": "222 ± 21.7", "unit": "RFUs"}]}
{"molecule": "[D-Phe^6,Leu-NHEt^13,des-Met^14]Bombesin(6-14)", "values": [{"measurement": "Ca2+ efflux", "setting": "GRPR", "value": "38.2 ± 7.20", "unit": "RFUs"}]}
{"molecule": "[^68Ga]Ga-DOTA-Pip-D-Phe^6-Gln^7-Trp^8-Ala^9-Val^10-Gly^11-His^12-Leu^13ψThz^14-NH2 [[^68Ga]Ga-TacsBOMB2]", "values": [{"measurement": "Adrenal glands uptake", "setting": "PC-3 tumor xenografts", "value": "0.57 ± 0.40", "unit": "%ID/g"}, {"measurement": "Blood uptake", "setting": "PC-3 tumor xenografts", "value": "0.76 ± 0.21", "unit": "%ID/g"}, {"measurement": "Bone uptake", "setting": "PC-3 tumor xenografts", "value": "0.19 ± 0.06", "unit": "%ID/g"}, {"measurement": "Brain uptake", "setting": "PC-3 tumor xenografts", "value": "0.05 ± 0.03", "unit": "%ID/g"}, {"measurement": "Fat uptake", "setting": "PC-3 tumor xenografts", "value": "0.09 ± 0.03", "unit": "%ID/g"}, {"measurement": "Heart uptake", "setting": "PC-3 tumor xenografts", "value": "0.27 ± 0.08", "unit": "%ID/g"}, {"measurement": "Kidneys uptake", "setting": "PC-3 tumor xenografts", "value": "2.51 ± 0.59", "unit": "%ID/g"}, {"measurement": "Large intestine uptake", "setting": "PC-3 tumor xenografts", "value": "0.37 ± 0.16", "unit": "%ID/g"}, {"measurement": "Liver uptake", "setting": "PC-3 tumor xenografts", "value": "2.61 ± 0.70", "unit": "%ID/g"}, {"measurement": "Lungs uptake", "setting": "PC-3 tumor xenografts", "value": "0.75 ± 0.52", "unit": "%ID/g"}, {"measurement": "Muscle uptake", "setting": "PC-3 tumor xenografts", "value": "0.15 ± 0.05", "unit": "%ID/g"}, {"measurement": "PC-3 tumor uptake", "setting": "PC-3 tumor xenografts", "value": "10.2 ± 2.27", "unit": "%ID/g"}, {"measurement": "Pancreas uptake", "setting": "PC-3 tumor xenografts", "value": "2.81 ± 0.78", "unit": "%ID/g"}, {"measurement": "Small intestine uptake", "setting": "PC-3 tumor xenografts", "value": "1.04 ± 0.30", "unit": "%ID/g"}, {"measurement": "Spleen uptake", "setting": "PC-3 tumor xenografts", "value": "0.47 ± 0.17", "unit": "%ID/g"}, {"measurement": "Stomach uptake", "setting": "PC-3 tumor xenografts", "value": "0.32 ± 0.08", "unit": "%ID/g"}, {"measurement": "Testes uptake", "setting": "PC-3 tumor xenografts", "value": "0.19 ± 0.05", "unit": "%ID/g"}]}
{"molecule": "bombesin", "values": [{"measurement": "Ca2+ efflux", "setting": "GRPR", "value": "499 ± 73.4", "unit": "RFUs"}]}
